From US9808470B2, “Estrogenic components for use in the treatment of neurological disorders” (UNIVERSITE DE LIEGE, priority 2012, dated 2017)
Several values for one entry are separate records, joined by “and”; a condition that tells them apart may be missing. Identical values can stand only once.

Experiments:
[1] = tested on: CD11b-positive cells; assay: Ex.6 IL-1β induced diffuse white matter injury mouse model: microglial phenotype gene expression (qRT-PCR); assay type: in vivo
Procedure: Experimental protocols were approved by the institutional guidelines of the Institut National de la Santé et de la Recherche Scientifique (Inserm, France), and met the guidelines for the United States Public Health Service's Policy on Humane Care and Use of Laboratory Animals (NIH, Bethesda, Md., USA). Experiments were performed using OF1 strain mice purchased from Charles River (L'Arbresle, France) and born in our animal facility. Animals were housed under a 12 h light-dark cycle, had access to food and water ad libitum. Sex was determined at birth and confirmed at sacrifice. To avoid any potential variability linked to sex to differences. only male pups were used. Mice received twice a day from P1 to P4 and once on P5 a 5 μl intraperitoneal injection containing either PBS alone (sham group) or 10 μg/kg/dose recombinant mouse IL-1β in PBS. Vehicle group received only IL-1β injections while 10 μg E4 (5 mg/kg) or 20 μg E4 (10 mg/kg) was added to IL-1β once a day from P1 to P5 for E4 treated groups. Pups were sacrificed 3 hours after the first intraperitoneal injection at P1, 3 hours after last treatment at P5 or at P10 by intracardiac perfusion with NaCl 0.9% after anaesthesia by inhaled isoflurane.
At P1 and P5, brains were collected for cell dissociation and CD11b-positive (P1 and P5) and O4-positive (P5) cell enrichment using a magnetic coupled antibody extraction technique (MACS), as previously described and according to the manufacturer's protocol (Miltenyi Biotec, Bergisch Gladbach, Germany). The CD11b antigen is expressed on the surface of microglial cells while the O4 antigen is expressed on the cell surface of pre-OLs (Back et al., 2001). Briefly, after removing the cerebellum and olfactory bulbs, brains were pooled (n=3 at P1 and n=2 at P5) and dissociated using the neural tissue dissociation kit containing papain. From the resulting brain homogenate CD11b-positive cells (P1) and O4-positive then CD11b-positive cells (P5) were enriched by MACS, using the anti-CD11b or anti-O4 MicroBeads. After elution the isolated cells were centrifuged for 5 min at 600 g at 4° C. and conserved at −80° C.
Preparation of samples for quantitative reverse-transcriptase polymerase-chain reaction (qRT-PCR), primer design, and PCR protocol, were similar to that previously described (Favrais et al., 2011; Chhor et al., 2013). Briefly, RNA extraction was performed by with RNeasy mini kit according to the manufacturer's instructions (Qiagen, Courtaboeuf, France). RNA quality and concentration were assessed by spectrophotometry with the Nanodrop™ apparatus (Thermoscientific, Wilmington, Del., USA). Total RNA (0.5-1 μg) was subjected to reverse transcription using the iScript™ cDNA synthesis kit (Bio-Rad, Marnes-la-Coquette, France). qPCR was using SYBR Green Supermix (Bio-Rad). The relative expression of genes of interest (GOI) were expressed relative to expression of the reference gene, ribosomal protein L13a (Rpl13a) for CD11b+ cells and Glyceraldehyde 3-phosphate dehydrogenase (GAPDH) for O4+ cells and anterior brains based on reference gene suitability testing. Analyses were performed with the Biorad CFX manager 2.1 software. The relative quantities are expressed as the specific ratio between the gene of interest and Rpl13 or GAPDH. The data are presented as relative mRNA units with respect to control values (expressed as a fold-difference with respect to the mean of sham values).

[2] = Ex.4 therapeutic HIE rat model: rectal temperature; assay type: in vivo; settings: E4 1, 5, 10, 50 mg/kg single ip dose after HI at PND7; 0, 2, 4 h after hypoxia
Procedure: The rectal temperature of the rat pups was measured with a multipurpose thermometer (BAT-10R, Physitemp Instruments Inc., Clifton, N.J., US) along with a rectal probe (RET-4, BioMedical Instruments, Zollnitz, Germany) at 0, 2, and 4 hours after exposure to hypoxic insult. To keep the variability of the temperature low, measurements of rectal temperature were made in a 25° C. room 15 min after removal of the pups from the nest (except the 1st post-hypoxic measurement which was done immediately). It has been shown that the rectal temperature corresponds very well to the brain core temperature (Thoresen et al. 1996. Arch Dis Child Fetal Neonatal 74: F3-F9, Yager et al. 1993. Pediatr Res 34: 525-529).
To study the therapeutic effect of estetrol, newborn rat pups were assigned to one of the following 6 groups at postnatal day 7: sham group (n=29), vehicle group (n=20), 1 mg/kg E4 group (n=16), 5 mg/kg E4 group (n=19), 10 mg/kg day E4 (n=17) and 50 mg/kg day E4 group (n=15). At postnatal day 7 animals were anesthetized with isoflurane (induction, 3.0%; maintenance, 1.5%), and the rat pups from vehicle and E4 groups passed through surgery encompassing left common carotid artery double ligation and cut. After surgery, the pups were returned to their dams and allowed to recover for 1 hour. The pups were then placed in a humidified hypoxic in vivo cabinet (CoyLab). […]

[3] = octanol-water; depending on experimental settings; listed as estetrol; cited from earlier work
[4] = IL-1β P1 to P5 + E4 10 mg/kg, P5
[5] = IL-1β+E4 5 mg/kg ip, P1, 3 h post-treatment, vs IL-1β group
[6] = IL-1β+E4 5 and 10 mg/kg ip, P1, vs IL-1β group

- rectal temperature [2]: did not affect the body temperature
SMILES: C[C@]12CC[C@@H]3c4ccc(O)cc4CC[C@H]3[C@@H]1[C@@H](O)[C@@H](O)[C@@H]2O [E4, 1,3,5(10)-estratrien-3,15α,16α,17β-tetrol]
- over-expression of IL1Rn (M2b) ([1]; IL-1β P1 to P5 + E4 5 mg/kg, P5): significantly limited
- inflammation induced over-expression of IL1Rn (M2b) [1, 4]: prevented
- inflammation induced over-expression of IL4Ra (M2b) [1, 4]: prevented
- inflammation induced over-expression of iNOS (M1) [1, 4]: prevented
- expression of CD32 mRNA (M1) [1, 5]: significantly down-regulated
- expression of CD86 mRNA (M1) [1, 5]: significantly down-regulated
- expression of genes associated with the M2a repair/regeneration phenotype ([1]; IL-1β+E4 10 mg/kg ip, P1): non-significant trend to the up-regulation
- expression of Ptgs2 mRNA (M1) ([1]; IL-1β+E4 10 mg/kg ip, P1, vs IL-1β group): significantly decreased
- expression of IL1RN (M2b) [1, 6]: decreased
- expression of Sphk1 (M2b) [1, 6]: decreased
- iNOS mRNA (M1) [1, 6]: significantly decreased
- Pow Log [3]: 1.47 and 1.695
